# Test system: glucose-6-phosphate
# Settings: micropost tips 40% G6PD and 60% PEO 200 k, versus uncompressed powder
# Procedure: To perform the activity assay on G6PD, an activity assay kit (Sigma Aldrich) was used which measures the amount of oxidized glucose-6-phosphate. […] Duplicate assays were performed on the dissolved solution.
substance,measurement,value
glucose-6-phosphate dehydrogenase,G6PD activity after the manufacturing process,maintain their activity

# From patent US11541015B2, “Self-righting systems, methods, and related components” (priority 2017, dated 2023)
